Experimental data: patent US20220389061A1, “IMMUNOMODULATORS” (priority 2019, published 2022)
pIC50: −log10 of the molar value. Like-named read-outs stand apart in the source and are kept apart here. Starred links: 1 amine or outer side, 2 acyl side, 3 side chain; linkers in the order of their positions; H or OH if unused. Positions of bridges follow the written chain, without caps; N, C: chain ends. Non-standard residues stand in square brackets, D forms with d. Residues, ends and D or L forms follow the SMILES beside them. Groups on a side chain read outwards from the residue. *: point of attachment. Trp(1-CH2CO2Me) = COC(=O)Cn1cc(C[C@H](N)C(=O)O)c2ccccc21; Trp(1-CH2COOH) = N[C@@H](Cc1cn(CC(=O)O)c2ccccc12)C(=O)O; Benzoyl(2-(4-MeOPh)) = COc1ccc(-c2ccccc2C(=O)*)cc1; Hyp = O=C(O)[C@@H]1C[C@@H](O)CN1; X43 = S=C(Nc1ccccc1Oc1ccccc1)*; X87 = FC(F)(F)c1ccccc1NC(=S)*; NMeNle = CCCC[C@H](NC)C(=O)O; X12 = S=C(Nc1ccc2ccccc2c1)*; X54 = S=C(Nc1cccc2ncccc12)*; X2 = c1ccc(-c2ccccc2N*)cc1; X5 = S=C(Nc1cccc2ccccc12)*; X6 = CCCCCCCOc1ccc(N*)cc1; X90 = Fc1cc(F)c(N*)c(F)c1; NMeA = CN[C@@H](C)C(=O)O; X58 = COc1cc(N*)cc(OC)c1; Dab = NCC[C@H](N)C(=O)O; Dap = NC[C@H](N)C(=O)O; X51 = Cc1cccc(Cl)c1N*; CO = O=C([*:1])[*:2]

Biological target: T1, PD-1/PD-L1 (Homo sapiens, UniProt Q9NZQ7)
T1 construct: TVMV protease site linker (C); made in house; host or cells: HEK293T cells
T1 sequence (Q9NZQ7 18-239): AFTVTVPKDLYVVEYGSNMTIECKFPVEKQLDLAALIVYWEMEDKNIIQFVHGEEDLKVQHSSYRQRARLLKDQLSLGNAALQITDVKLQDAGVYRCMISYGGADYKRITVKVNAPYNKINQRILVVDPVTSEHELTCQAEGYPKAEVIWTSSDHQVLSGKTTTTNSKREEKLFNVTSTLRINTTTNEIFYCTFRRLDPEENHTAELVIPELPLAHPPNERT
Experiment: PD-1/PD-L1 Homogenous Time-Resolved Fluorescence (HTRF) binding assay
Outline: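 Compounds preincubated 15 min with PD-L1-His (10 nM final), then PD-1-Ig (20 nM final) added for 15 min in dPBS with 0.1% BSA, 0.05% Tween-20. Detection by Eu-cryptate anti-Ig (1 nM) and APC anti-His (20 nM) HTRF.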

[1] = PD-L1-His 10 nM pre-incubated with inhibitor, PD-1-Ig 20 nM, read-out: HTRF IC50

| pIC50 [1] | SMILES | pIC50 |
| --- | --- | --- |
| 8.52 | CCCC[C@H]1C(=O)N(C)[C@@H](CCCC)C(=O)N[C@@H](CC(C)C)C(=O)N[C@H](C(=O)NCC(N)=O)CSCC(=O)N[C@@H](Cc2ccc(O)cc2)C(=O)N(C)[C@@H](C)C(=O)N[C@@H](CC(N)=O)C(=O)N2CCC[C@H]2C(=O)N[C@@H](CNC(=S)Nc2ccccc2C(F)(F)F)C(=O)N[C@@H](CC(C)C)C(=O)N2C[C@H](O)C[C@H]2C(=O)N[C@@H](Cc2c[nH]c3ccccc23)C(=O)N[C@@H](CCNC(=S)Nc2ccccc2C(F)(F)F)C(=O)N[C@@H](Cc2cn(CC(=O)O)c3ccccc23)C(=O)N1C [Example 1016] ({CH2CO}-Y[NMeA]NP[Dap](X87)L[Hyp]W[Dab](X87)[Trp(1-CH2COOH)][NMeNle][NMeNle]LCG-NH2; thioether N-14) |  |
| 8.49 | CCCC[C@H]1C(=O)N(C)[C@@H](CCCC)C(=O)N[C@@H](CC(C)C)C(=O)N[C@H](C(=O)NCC(N)=O)CSCC(=O)N[C@@H](Cc2ccc(O)cc2)C(=O)N(C)[C@@H](C)C(=O)N[C@@H](CC(N)=O)C(=O)N2CCC[C@H]2C(=O)N[C@@H](CNC(=S)Nc2cccc3ncccc23)C(=O)N[C@@H](CC(C)C)C(=O)N2C[C@H](O)C[C@H]2C(=O)N[C@@H](Cc2c[nH]c3ccccc23)C(=O)N[C@@H](CCNC(=S)Nc2cccc3ncccc23)C(=O)N[C@@H](Cc2cn(CC(=O)O)c3ccccc23)C(=O)N1C [Example 3024] ({CH2CO}-Y[NMeA]NP[Dap](X54)L[Hyp]W[Dab](X54)[Trp(1-CH2COOH)][NMeNle][NMeNle]LCG-NH2; thioether N-14) |  |
|  | CCCC[C@H]1C(=O)N(C)[C@@H](CCCC)C(=O)N[C@@H](CC(C)C)C(=O)N[C@H](C(=O)NCC(N)=O)CSCC(=O)N[C@@H](Cc2ccc(O)cc2)C(=O)N(C)[C@@H](C)C(=O)N[C@@H](CC(N)=O)C(=O)N2CCC[C@H]2C(=O)N[C@@H](CNC(=O)Nc2ccccc2-c2ccccc2)C(=O)N[C@@H](CC(C)C)C(=O)N2C[C@H](O)C[C@H]2C(=O)N[C@@H](Cc2c[nH]c3ccccc23)C(=O)N[C@@H](CCN)C(=O)N[C@@H](Cc2cn(CC(=O)O)c3ccccc23)C(=O)N1C [Example 1062] ({CH2CO}-Y[NMeA]NP[Dap]([CO-X2])L[Hyp]W[Dab][Trp(1-CH2COOH)][NMeNle][NMeNle]LCG-NH2; thioether N-14) | 8.47 |
| 10.00 | CCCC[C@H]1C(=O)N(C)[C@@H](CCCC)C(=O)N[C@@H](CC(C)C)C(=O)N[C@H](C(=O)NCC(N)=O)CSCC(=O)N[C@@H](Cc2ccc(O)cc2)C(=O)N(C)[C@@H](C)C(=O)N[C@@H](CC(N)=O)C(=O)N2CCC[C@H]2C(=O)N[C@@H](CN)C(=O)N[C@@H](CC(C)C)C(=O)N2C[C@H](O)C[C@H]2C(=O)N[C@@H](Cc2c[nH]c3ccccc23)C(=O)N[C@@H](CCNC(=S)Nc2cccc3ccccc23)C(=O)N[C@@H](Cc2cn(CC(=O)O)c3ccccc23)C(=O)N1C [Example 3029] ({CH2CO}-Y[NMeA]NP[Dap]L[Hyp]W[Dab](X5)[Trp(1-CH2COOH)][NMeNle][NMeNle]LCG-NH2; thioether N-14) |  |
| 8.60 | CCCC[C@H]1C(=O)N(C)[C@@H](CCCC)C(=O)N[C@@H](CC(C)C)C(=O)N[C@H](C(=O)NCC(N)=O)CSCC(=O)N[C@@H](Cc2ccc(O)cc2)C(=O)N(C)[C@@H](C)C(=O)N[C@@H](CC(N)=O)C(=O)N2CCC[C@H]2C(=O)N[C@@H](CNC(=O)Nc2c(F)cc(F)cc2F)C(=O)N[C@@H](CC(C)C)C(=O)N2C[C@H](O)C[C@H]2C(=O)N[C@@H](Cc2c[nH]c3ccccc23)C(=O)N[C@@H](CCNC(=O)Nc2c(C)cccc2Cl)C(=O)N[C@@H](Cc2cn(CC(=O)O)c3ccccc23)C(=O)N1C [Example 1114] ({CH2CO}-Y[NMeA]NP[Dap]([CO-X90])L[Hyp]W[Dab]([CO-X51])[Trp(1-CH2COOH)][NMeNle][NMeNle]LCG-NH2; thioether N-14) |  |
| 8.31 | CCCC[C@H]1C(=O)N(C)[C@@H](CCCC)C(=O)N[C@@H](CC(C)C)C(=O)N[C@H](C(=O)NCC(N)=O)CSCC(=O)N[C@@H](Cc2ccc(O)cc2)C(=O)N(C)[C@@H](C)C(=O)N[C@@H](CC(N)=O)C(=O)N2CCC[C@H]2C(=O)N[C@@H](CNC(=S)Nc2ccc3ccccc3c2)C(=O)N[C@@H](CC(C)C)C(=O)N2C[C@H](O)C[C@H]2C(=O)N[C@@H](Cc2c[nH]c3ccccc23)C(=O)N[C@@H](CCNC(=S)Nc2ccc3ccccc3c2)C(=O)N[C@@H](Cc2cn(CC(=O)O)c3ccccc23)C(=O)N1C [Example 3014] ({CH2CO}-Y[NMeA]NP[Dap](X12)L[Hyp]W[Dab](X12)[Trp(1-CH2COOH)][NMeNle][NMeNle]LCG-NH2; thioether N-14) |  |
| 8.52 | CCCC[C@H]1C(=O)N(C)[C@@H](CCCC)C(=O)N[C@@H](CC(C)C)C(=O)N[C@H](C(=O)NCC(N)=O)CSCC(=O)N[C@@H](Cc2ccc(O)cc2)C(=O)N(C)[C@@H](C)C(=O)N[C@@H](CC(N)=O)C(=O)N2CCC[C@H]2C(=O)N[C@@H](CNC(=O)Nc2cc(OC)cc(OC)c2)C(=O)N[C@@H](CC(C)C)C(=O)N2C[C@H](O)C[C@H]2C(=O)N[C@@H](Cc2c[nH]c3ccccc23)C(=O)N[C@@H](CCN)C(=O)N[C@@H](Cc2cn(CC(=O)O)c3ccccc23)C(=O)N1C [Example 1064] ({CH2CO}-Y[NMeA]NP[Dap]([CO-X58])L[Hyp]W[Dab][Trp(1-CH2COOH)][NMeNle][NMeNle]LCG-NH2; thioether N-14) |  |
| 8.31 | CCCC[C@H]1C(=O)N(C)[C@@H](CCCC)C(=O)N[C@@H](CC(C)C)C(=O)N[C@H](C(=O)NCC(N)=O)CSCC(=O)N[C@@H](Cc2ccc(O)cc2)C(=O)N(C)[C@@H](C)C(=O)N[C@@H](CC(N)=O)C(=O)N2CCC[C@H]2C(=O)N[C@@H](CNC(=S)Nc2ccccc2Oc2ccccc2)C(=O)N[C@@H](CC(C)C)C(=O)N2C[C@H](O)C[C@H]2C(=O)N[C@@H](Cc2c[nH]c3ccccc23)C(=O)N[C@@H](CCN)C(=O)N[C@@H](Cc2cn(CC(=O)O)c3ccccc23)C(=O)N1C [Example 1135] ({CH2CO}-Y[NMeA]NP[Dap](X43)L[Hyp]W[Dab][Trp(1-CH2COOH)][NMeNle][NMeNle]LCG-NH2; thioether N-14) |  |

| SMILES | pIC50 [1] | pIC50 |
| --- | --- | --- |
| CCCC[C@H]1C(=O)N(C)[C@@H](CCCC)C(=O)N[C@@H](CC(C)C)C(=O)N[C@H](C(=O)NCC(N)=O)CSCC(=O)N[C@@H](Cc2ccc(O)cc2)C(=O)N(C)[C@@H](C)C(=O)N[C@@H](CC(N)=O)C(=O)N2CCC[C@H]2C(=O)N[C@@H](CNC(=O)c2ccccc2-c2ccc(OC)cc2)C(=O)N[C@@H](CC(C)C)C(=O)N2C[C@H](O)C[C@H]2C(=O)N[C@@H](Cc2c[nH]c3ccccc23)C(=O)N[C@@H](CCNC(=O)c2ccccc2-c2ccc(OC)cc2)C(=O)N[C@@H](Cc2cn(CC(=O)OC)c3ccccc23)C(=O)N1C [Example 1050] ({CH2CO}-Y[NMeA]NP[Dap](Benzoyl(2-(4-MeOPh)))L[Hyp]W[Dab](Benzoyl(2-(4-MeOPh)))[Trp(1-CH2CO2Me)][NMeNle][NMeNle]LCG-NH2; thioether N-14) | 7.41 |  |
| CCCCCCCOc1ccc(NC(=O)NC[C@@H]2NC(=O)[C@@H]3CCCN3C(=O)[C@H](CC(N)=O)NC(=O)[C@H](C)N(C)C(=O)[C@H](Cc3ccc(O)cc3)NC(=O)CSC[C@@H](C(=O)NCC(N)=O)NC(=O)[C@H](CC(C)C)NC(=O)[C@H](CCCC)N(C)C(=O)[C@H](CCCC)N(C)C(=O)[C@H](Cc3cn(CC(=O)O)c4ccccc34)NC(=O)[C@H](CCN)NC(=O)[C@H](Cc3c[nH]c4ccccc34)NC(=O)[C@@H]3C[C@@H](O)CN3C(=O)[C@H](CC(C)C)NC2=O)cc1 [Example 1089] ({CH2CO}-Y[NMeA]NP[Dap]([CO-X6])L[Hyp]W[Dab][Trp(1-CH2COOH)][NMeNle][NMeNle]LCG-NH2; thioether N-14) | 7.92 |  |
